{
  "source": "patent US20110064694A1",
  "about": "“ANTI-HEPATITIS C ACTIVITY OF MESO-TETRAKIS-PORPHYRIN ANALOGUES” (YALE UNIVERSITY, priority 2009, published 2011)",
  "key": {"Huh-7 cells": {"test_system": "Huh-7 cells", "experiment": "Cytotoxicity in Huh-7 cells (methylene blue or CellTiter-Glo)", "type": "cell-based", "details": "Huh-7 cells, 3 days; read-out: Cytotoxicity CC50 Huh-7", "procedure": "(§1) Determination of cytotoxicity and mitochondrial DNA toxicity. Exponentially growing Huh-7 cells were seeded at a density of 1×10^4 cells per well in a 24-well plate and incubated with TPP analogues for 3 days. Cells were fixed and stained with 0.5% methylene blue in 50% ethanol followed by extensive washing. After the plates were air dried, cells were solubilized in 1% sarkosyl and cell growth was determined from the extent of absorption by spectrophotometric measurements at 595 nm (Biotek Instruments). For compounds whose dark color interfered with 595-nm reading, cytotoxicity was measured by the CellTiter-Glo luminesecent cell viability assay following manufacturer's description (Promega). Cytotoxicity in MT-2 cells was determined from colorimetric quantitation of uninfected MT-2 cells after 5 days of coincubation."}, "[1]": {"test_system": "HCV genotype 1b (Con1) replicon cells Huh-luc/neo-ET", "procedure": "Reversibility of the action of compound 6 against genotype 1b HCV replicon. Huh-luc/neo-ET cells were seeded at a density of 2×10^5 cells per well in a 6-well plate, and were incubated for 12 days with DMSO control or up to 1 μM of compound 6 in the absence of G418. Cells were split every three days when media and compounds were replenished, and samples were collected for RNA quantification. compound 6 was removed on Day 12 when cells were split and cultured in the presence of 250 μg/ml of G418. Replicon cells were continuously monitored for another 12 days, during which cells were split and sampled whenever reaching confluence. Cell viability was measured by CellTiter-Glo luminescent cell viability assay following manufacturer's procedures (Promega), and the HCV RNA was quantitated by qRT-PCR and normalized as described above.\nThe goal of anti-HCV treatment is to completely eliminate the virus from infected cells. In order to assess the reversibility of the antiviral action and the possibility of replicon clearance, we incubated Huhluc/neo-ET cells with increasing concentrations of compound 6 for […] free from G418 (FIG. 4). On Day 12 compound 6 was removed and 250 μgml G418 was reintroduced while the replicon RNA level and cell growth were monitored for another 12 days."}, "[2]": {"test_system": "HCV genotype 1b (Con1) replicon", "experiment": "Effect of serum concentration on anti-HCV activity, luciferase assay in Huh-luc/neo-ET cells", "type": "cell-based, Hepatitis C virus", "details": "for EC50: 72 hrs", "procedure": "Cells were harvested after 72 hrs for luciferase activity assays.\nHuh-luc/neo-ET cells were incubated with compound 1, 4 or 6 for 72 hrs and the anti-HCV activity was evaluated by measuring the reduction of reporter luciferase activities."}, "CEM cells": {"test_system": "CEM cells", "experiment": "Cytotoxicity in CEM cells", "details": "read-out: Cytotoxicity CC50 CEM"}, "MT-2 cells": {"test_system": "MT-2 cells", "experiment": "Cytotoxicity in uninfected MT-2 cells", "type": "cell-based", "details": "uninfected MT-2 cells, 5 days; read-out: Cytotoxicity CC50 MT-2", "procedure": "as §1"}, "cytochrome c": {"biological_target": "cytochrome c (Equus caballus, UniProt P00004)", "sequence (P00004 2-105 limits assumed)": "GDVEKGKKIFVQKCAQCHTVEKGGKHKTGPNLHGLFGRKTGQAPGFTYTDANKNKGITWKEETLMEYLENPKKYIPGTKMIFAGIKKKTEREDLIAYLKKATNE", "details": "read-out: Kd, binding to cyt c; cited from earlier work"}, "[3]": {"test_system": "HCV genotype 1b (Con1) replicon", "procedure": "Quantification of HCV RNA and NS5A protein. Huhluc/neo-ET cells were seeded at the density of 1×10^5 cells per well in 6-well plate and treated with either DMSO control or up to 250 nM of compound 6. Cells were harvested after 24, 48, or 72 hrs of incubation and subjected to luciferase activity assay, RNA quantification and immunoblotting. Results were averaged from three independent repeats. Luciferase activity assay was done in triplets per experiment as aforementioned and RLU reading was normalized against the total protein level per sample determined from Bradford assay. Total RNA was isolated using RNeasy Mini Kit (QIAGEN) and the RNA concentrations were measured by spectrophotometry (GE Healthcare) followed by dilution into 50 ng/μL. Replicon RNA was quantitated in triplicates by amplifying the HCV 5′UTR using one-step real-time reverse transcriptase polymerase chain reactions (qRT-PCR). Each 20 μL replicate contained 100 ng of total RNA, 100 nM probe (6FAM-5′-[…]-3′-MGBNFQ, Applied Biosystems) and 200 nM forward and reverse primers (5′-[…]-3′, and 5′-[…]-3′ respectively, Yale University W.M. Keck Facility) (21), together with iScript reverse transcriptase and reaction mix for one-step RT-PCR (Bio-Rad Laboratories). Reactions were run in the iCycler iQ RealTime thermocycler detection system (Bio-Rad Laboratories) as follows: 10 min at 50° C., 5 min at 95° C., followed by 42 cycles at 95° C. for 15 sec and 60° C. for […]. Results were normalized against the β-actin mRNA levels in each sample (20)."}, "[4]": {"test_system": "mitochondrial DNA content of CEM cells", "experiment": "Mitochondrial DNA toxicity, slot blot of CEM cell lysates", "type": "cell-based", "procedure": "Quantitation of mitochondrial DNA content was performed as previously published (18). Briefly, CEM cell lysates were spotted onto Hybond paper using the Miliford II slot blot apparatus (Schleicher & Schuell). MTDNA was detected with mtDNA-specific probe and then reprobed with Alu probe for internal control. The autoradiographic bands were quantified on scanning densitometer (Molecular Dynamics)."}},
  "note": "Like-named read-outs stand apart in the source and are kept apart here.",
  "data": [
    {"smiles": "O=C(O)c1cc(C(=O)O)cc(-c2ccc(-c3c4nc(c(-c5ccc(-c6cc(C(=O)O)cc(C(=O)O)c6)cc5)c5ccc([nH]5)c(-c5ccc(-c6cc(C(=O)O)cc(C(=O)O)c6)cc5)c5nc(c(-c6ccc(-c7cc(C(=O)O)cc(C(=O)O)c7)cc6)c6ccc3[nH]6)C=C5)C=C4)cc2)c1", "note": "[Compound 6, Meso-teftakis-(3,5-dicarboxy-4,4′-biphenyl)porphyrin]", "values": [
      {"measurement": "CC50", "setting": "Huh-7 cells", "result": "> 50000", "unit": "nM"},
      {"measurement": "cells surviving under G418", "setting": "[1]; 50 nM for 12 days, 6 days after the removal of inhibitor", "result": 8.5, "unit": "%"},
      {"measurement": "replicon-positive cells rebounded", "setting": "[1]; 50 nM for 12 days, 12 days after removal of inhibitor", "result": 13.1, "unit": "%"},
      {"measurement": "cells surviving under G418", "setting": "[1]; 100 nM for 12 days, end of the experiment", "result": 0.007, "unit": "%"},
      {"measurement": "cell viability after G418 reintroduction", "setting": "[1]; 300 nM and 1 μM for 12 days, 9 days after coincubation with G418", "result": "no longer viable"},
      {"measurement": "reduction in the HCV RNA levels", "setting": "[1]; 300 nM and above, after 12 days of exposure", "result": "approximately 4.5 1o916"},
      {"measurement": "cells surviving under G418", "setting": "[1]; 300 nM for 9 days, 15-day rebound period with G418", "result": 0.4, "unit": "%"},
      {"measurement": "replicon clearance", "setting": "[1]; 1 μM for 9 days, 15-day rebound period with G418", "result": "achieved complete “cure”"},
      {"measurement": "toxicity in cells during the 12-day treatment", "setting": "[1]; up to 1 μM, 12 days", "result": "did not cause significant toxicity"},
      {"measurement": "EC50", "setting": "[2]; 5% FBS, read-out: EC50 5% FBS", "result": "13 ± 3", "unit": "nM"},
      {"measurement": "EC50", "setting": "[2]; 40% FBS, read-out: EC50 40% FBS", "result": "69 ± 11", "unit": "nM"},
      {"measurement": "Fold Change in EC50 5% FBS", "setting": "[2]; EC50 at 5% FBS as one fold", "result": 1.00},
      {"measurement": "EC50", "setting": "[2]; extrapolation of the plot of EC50 vs serum amount, read-out: EC50 0% FBS (Theoretical)", "result": 6.5, "unit": "nM"},
      {"measurement": "EC50", "setting": "[2]; read-out: EC50 10% FBS, 10% FBS", "result": "24 ± 5", "unit": "nM"},
      {"measurement": "EC50", "setting": "[2]; read-out: EC50 20% FBS, 20% FBS", "result": "39 ± 5", "unit": "nM"},
      {"measurement": "Fold Change in EC50 10% FBS", "setting": "[2]; relative to EC50 at 5% FBS", "result": "1.92 ± 0.22"},
      {"measurement": "Fold Change in EC50 20% FBS", "setting": "[2]; relative to EC50 at 5% FBS", "result": "3.20 ± 0.96"},
      {"measurement": "Fold Change in EC50 40% FBS", "setting": "[2]; relative to EC50 at 5% FBS", "result": "5.56 ± 0.85"},
      {"measurement": "CC50", "setting": "CEM cells", "result": "> 50000", "unit": "nM"},
      {"measurement": "CC50", "setting": "MT-2 cells", "result": "18000 ± 4240", "unit": "nM"},
      {"measurement": "Kd", "setting": "cytochrome c", "result": "1500 ± 170", "unit": "nM"},
      {"measurement": "improvement of 72-hr EC50 compared with 24-hrs incubation, luciferase", "setting": "[3]; 72 hr vs 24 hr", "result": "over 3 fold"},
      {"measurement": "EC50", "setting": "[3]; read-out: 24-hr EC50, replicon luciferase activity, 24 hrs incubation", "result": 57.8, "unit": "nM"},
      {"measurement": "EC50", "setting": "[3]; read-out: 48-hr EC50, replicon luciferase activity, 48 hrs incubation", "result": 19.2, "unit": "nM"},
      {"measurement": "EC50", "setting": "[3]; read-out: 72-hr EC50, replicon luciferase activity, 72 hrs incubation", "result": 17.6, "unit": "nM"},
      {"measurement": "effect on amount of mitochondrial DNAs", "setting": "[4]", "result": "did not alter the amount of mitochondrial DNAs"},
      {"measurement": "IC50", "setting": "[4]; CEM cells, read-out: Mitochondrial DNA Toxicity IC50 CEM", "result": "> 50000", "unit": "nM"}
    ]}
  ]
}
